Molecules are shown by their SMILES.

`*/C(C)=[C](/*)[Ge]([CH3])([CH3])[CH3]` (repeat unit) came in with a glass transition temperature of 250.00 °C.

`*CC(*)Cc1ccccc1` (repeat unit) registered a glass transition temperature of 70.00 °C.

On to `*CC(*)Cc1ccccc1C` (repeat unit), for which the glass transition temperature came to 80.00 °C.

With `*CC(*)OC(=O)/C=C/c1ccccc1` (repeat unit), the glass transition temperature turned out to be 127.00 °C.

The compound `*CC(*)OC(=O)C(C)(C)C(C)(C)CC` (repeat unit) showed a glass transition temperature of 90.00 °C.

With `*CC(*)OC(=O)C(C)(C)CC(C)(C)C` (repeat unit), the glass transition temperature was determined as 55.00 °C.

`*CC(*)OC(=O)C(C)(C)CCC` (repeat unit) returned a glass transition temperature of 10.00 °C.

`*CC(*)OC(=O)C(F)(F)C(F)(F)C(F)(F)C(F)(F)C(F)(F)C(F)(F)C(F)(F)F` (repeat unit) showed a glass transition temperature of -10.00 °C.

Compound `*CC(*)OC(=O)C(F)(F)C(F)(F)C(F)(F)C(F)(F)F` (repeat unit) yielded a glass transition temperature of 20.00 °C.

`*CC(*)OC(=O)C(F)(F)C(F)(F)C(F)(F)F` (repeat unit): the glass transition temperature turned out to be 27.00 °C.

The compound `*CC(*)OC(=O)C1(F)C(F)(F)C(F)(F)C(F)(F)C(F)(F)C1(F)F` (repeat unit) showed a glass transition temperature of 54.00 °C.

In turn, `*CC(*)OC(=O)C1CCCCC1` (repeat unit) came in with a glass transition temperature of 66.00 °C.

The compound `*CC(*)OC(=O)c1ccc(C(C)C)cc1` (repeat unit) gave a glass transition temperature of 67.70 °C.

Regarding `*CC(*)OC(=O)c1cccc(Br)c1` (repeat unit), the glass transition temperature came to 57.50 °C.

With `*CC(*)OC(=O)c1cccc(Cl)c1` (repeat unit), the glass transition temperature turned out to be 61.8 °C.

In turn, `*CC(*)OC(=O)c1ccccc1` (repeat unit) yielded a glass transition temperature of 70.40 °C.

On to `*CC(*)OCCOCCOCCOC` (repeat unit), for which the glass transition temperature is -76.00 °C.

Turning to `*CC(*)OCCOc1ccc(/N=N/c2ccc(C#N)cc2)cc1` (repeat unit), the glass transition temperature was 61.00 °C.

For `*CC(*)OCCOc1ccc(C=C(C#N)C#N)cc1` (repeat unit), the glass transition temperature came out at 38.00 °C.

For `*CC(*)SCC` (repeat unit), the glass transition temperature is -7.00 °C.

Regarding `*CC(*)SCCCC` (repeat unit), the glass transition temperature was -20.00 °C.

In turn, `*CC(*)c1c(Cl)cccc1Cl` (repeat unit) returned a glass transition temperature of 165.00 °C.

`*CC(*)c1c(F)c(F)c(OC)c(F)c1F` (repeat unit): the glass transition temperature came to 94.00 °C.

Turning to `*CC(*)c1cc(Br)ccc1OCC` (repeat unit), the glass transition temperature stood at 80.00 °C.

In turn, `*CC(*)c1cc(Br)ccc1OCCCCC` (repeat unit) returned a glass transition temperature of 49.00 °C.

As for `*CC(*)c1cc(C(=O)OC)ccc1-c1ccc(OCCCCCCCC)cc1` (repeat unit), the glass transition temperature was determined as 126.00 °C.

In turn, `*CC(*)c1cc(C(=O)OCCCC)ccc1-c1ccc(OCCCCCCCC)cc1` (repeat unit) returned a glass transition temperature of 74.00 °C.

`*CC(*)c1cc(C(=O)OCCCCCCCC)ccc1-c1ccc(OCCCCCCCC)cc1` (repeat unit) returned a glass transition temperature of 57.00 °C.

Turning to `*CC(*)c1cc(C(=O)Oc2ccc(OC)cc2)ccc1C(=O)Oc1ccc(OC)cc1` (repeat unit), the glass transition temperature was 115.00 °C.

As for `*CC(*)c1cc(C(=O)Oc2ccc(OCCCC)cc2)ccc1C(=O)Oc1ccc(OCCCC)cc1` (repeat unit), the glass transition temperature was determined as 103.60 °C.

`*CC(*)c1cc(Cl)ccc1Cl` (repeat unit) showed a glass transition temperature of 108.00 °C.

`*CCCCCCOc1ccc(C(=O)N(C(=O)c2ccc(O*)cc2)c2ccc(Oc3ccccc3)cc2)cc1` (repeat unit) showed a glass transition temperature of 78.00 °C.

Consider `*Oc1ccc(Oc2ccc(/C(=N\c3ccccc3)c3ccc(Oc4ccc(Oc5cccc(*)n5)cc4)cc3)cc2)cc1` (repeat unit), for which the glass transition temperature was found to be 135.00 °C.

For the origin of these results see the PolyMetriX glass transition set.
